Among the data in US8344018B2, “Oxindolyl inhibitor compounds” (Gilead Sciences, Inc., priority 2008, dated 2013) are IC50 values, retold here.

Assay [1] deals with HDAC 1 (Homo sapiens, UniProt Q13547). Description: HDAC 1 fluorescence assay with about 3 hours preincubation. The class given is biochemical. As to conditions: 3-hour preincubation of enzyme and compound; two numbers = two different lots of the compound; read-out: HDAC 1 inhibitory activity (IC50 [μM]) (3-hour preincubation). Here is the method:
The second assay is similar to the first assay described above, except that preincubation is carried out for about 3 hours after the enzyme is introduced. The test compound was suspended in, and titrated in DMSO. It was then spotted into a 384-well test plate. The enzyme, HDAC 1, was diluted in the same assay buffer as used in the previous assay and added to the pre-spotted compound. The enzyme/compound mix was incubated at room temperature for about 3 hours. The peptide substrate containing a fluorophore/quencher pair was diluted in the assay buffer and added to the compound/enzyme mix initiating the reaction. The reaction incubated at room temperature for 45 minutes. A concentrated developer solution was diluted in the assay buffer, and added to the reaction. The reaction was incubated at room temperature for about 15 minutes and relative fluorescence was read on an instrument reader.
Where two numbers are given, the values are reported for measurements on two different lots of the compound.

Assay [2] addresses CDK2 (Homo sapiens, UniProt P24941). The assay is described as follows: CDK2 inhibition. The format is biochemical. Conditions: two numbers = two different lots of the compound.

Each structure is given as a SMILES string. Values joined by “and” are separate entries in the source; they are usually repeats but may differ in a detail not shown here. Equal values may be shown once.

Chain of HDAC 1 (Q13547 whole entry, species assumed): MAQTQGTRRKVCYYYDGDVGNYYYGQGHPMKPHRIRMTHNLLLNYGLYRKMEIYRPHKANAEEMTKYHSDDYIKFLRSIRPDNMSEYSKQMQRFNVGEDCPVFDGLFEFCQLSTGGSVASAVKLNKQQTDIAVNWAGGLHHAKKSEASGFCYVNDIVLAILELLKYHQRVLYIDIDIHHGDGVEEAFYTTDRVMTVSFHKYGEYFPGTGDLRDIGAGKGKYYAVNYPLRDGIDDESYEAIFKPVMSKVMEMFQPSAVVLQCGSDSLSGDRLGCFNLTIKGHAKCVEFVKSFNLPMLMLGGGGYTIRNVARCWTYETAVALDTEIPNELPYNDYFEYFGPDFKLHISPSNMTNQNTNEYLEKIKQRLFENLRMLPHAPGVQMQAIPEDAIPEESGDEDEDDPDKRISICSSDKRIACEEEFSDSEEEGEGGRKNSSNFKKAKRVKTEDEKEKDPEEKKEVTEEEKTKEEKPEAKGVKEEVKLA

A word on the IC50: it is the midpoint of a concentration-inhibition curve. Regarding `COC(=O)c1ccc2c(c1)/C(=C(\C)Nc1ccc(C(=O)Nc3ccccc3N)cc1)C(=O)N2` [Example 1, 3-{1-[4-(2-Amino-phenylcarbamoyl)-phenylamino]-ethylidene}-2-oxo-2,3-dihydro-1H-indole-5-carboxylic acid methyl ester], the values for the IC50 in assay [1] and in assay [2] were 0.033 µM and 0.043 µM, respectively.
Take `COC(=O)c1ccc2c(c1)/C(=C/Nc1ccc(C(=O)Nc3ccccc3N)cc1)C(=O)N2` [Example 2, 3-{[4-(2-Amino-phenylcarbamoyl)-phenylamino]-methylene}-2-oxo-2,3-dihydro-1H-indole-5-carboxylic acid methyl ester]: the IC50 in assay [1] was determined as 0.17 µM; in assay [2], 0.07 µM.
As to `C/C(Nc1ccc(C(=O)Nc2ccccc2N)cc1)=C1/C(=O)Nc2ccc(C#N)cc21` [Example 3, N-(2-Amino-phenyl)-4-[1-(5-cyano-2-oxo-1,2-dihydro-indol-3-ylidene)-ethylamino]-benzamide], the IC50 in assay [1] was 0.029 µM and 0.021 µM; in assay [2] it was 0.01 µM and 0.02 µM.
Regarding `CC(=O)c1ccc2c(c1)/C(=C(\C)Nc1ccc(C(=O)Nc3ccccc3N)cc1)C(=O)N2` [Example 4, 4-[1-(5-Acetyl-2-oxo-1,2-dihydro-indol-3-ylidene)-ethylamino]-N-(2-amino-phenyl)-benzamide], the IC50 in assay [1] was 0.064 µM and 0.03 µM; in assay [2], 0.01 µM.
Turning to `C/C(Nc1ccc(C(=O)Nc2ccccc2N)cc1)=C1/C(=O)Nc2ccc(C(=O)C(C)C)cc21` [Example 5, N-(2-Amino-phenyl)-4-[1-(5-isobutyryl-2-oxo-1,2-dihydro-indol-3-ylidene)-ethylamino]-benzamide], the IC50 is 0.335 µM in assay [1] and 0.02 µM in assay [2].
Regarding `C/C(Nc1ccc(C(=O)Nc2ccccc2N)cc1)=C1/C(=O)Nc2ccc(S(=O)(=O)N3CCOCC3)cc21` [Example 6, N-(2-Amino-phenyl)-4-{1-[5-(morpholine-4-sulfonyl)-2-oxo-1,2-dihydro-indol-3-ylidene]-ethylamino}-benzamide], the IC50 in assay [1] stood at 0.186 µM; in assay [2], 0.52 µM.
Turning to `C/C(Nc1ccc(C(=O)Nc2ccccc2N)cc1)=C1/C(=O)Nc2ccc(-c3csc(C)n3)cc21` [Example 7, N-(2-Amino-phenyl)-4-{1-[5-(2-methyl-thiazol-4-yl)-2-oxo-1,2-dihydro-indol-3-ylidene]-ethylamino}-benzamide], the IC50 was 0.232 µM in assay [1] and more than 40 µM in assay [2].
As to `CC(Nc1ccc(C(=O)Nc2ccccc2N)cc1)=C1C(=O)Nc2ccc(S(C)(=O)=O)cc21` [Example 8, N-(2-Amino-phenyl)-4-[1-(5-methanesulfonyl-2-oxo-1,2-dihydro-indol-3-ylidene)-ethylamino]-benzamide], the IC50 in assay [1] was found to be 0.1 µM; in assay [2], 0.13 µM.
The matching figures for `CN(C)CCNC(=O)c1ccc2c(c1)/C(=C/Nc1ccc(C(=O)Nc3ccccc3N)cc1)C(=O)N2` [Example 9, 3-{[4-(2-Amino-phenylcarbamoyl)-phenylamino]-methylene}-2-oxo-2,3-dihydro-1H-indole-5-carboxylic acid (2-dimethylamino-ethyl)-amide]: 0.063 µM and 0.25 µM.
Consider `C/C(Nc1ccc(C(=O)Nc2ccccc2N)cc1)=C1/C(=O)Nc2ccc(C(=O)O)cc21` [Example 10, 3-{1-[4-(2-Amino-phenylcarbamoyl)-phenylamino]-ethylidene}-2-oxo-2,3-dihydro-1H-indole-5-carboxylic acid], for which the IC50 in assay [1] was determined as 0.181 µM; in assay [2], 0.44 µM.
The matching figures for `COC(=O)c1ccc2c(c1)/C(=C(\C)Nc1ccc(C(=O)NO)cc1)C(=O)N2` [Example 11, 3-[1-(4-Hydroxycarbamoyl-phenylamino)-ethylidene]-2-oxo-2,3-dihydro-1H-indole-5-carboxylic acid methyl ester]: 0.635 µM and more than 40 µM.
With `C/C(Nc1ccc(C(=O)Nc2ccccc2N)cc1)=C1/C(=O)Nc2ccc(C(=O)N(C)C)cc21` [Example 12, 3-{1-[4-(2-Amino-phenylcarbamoyl)-phenylamino]-ethylidene}-2-oxo-2,3-dihydro-1H-indole-5-carboxylic acid dimethylamide], the values for the IC50 in assay [1] and in assay [2] were 0.071 µM and 0.34 µM, respectively.
`C/C(Nc1ccc(C(=O)Nc2ccccc2N)cc1)=C1/C(=O)Nc2ccc(C(C)O)cc21` (centres unmarked) [Example 13, N-(2-Amino-phenyl)-4-{1-[5-(1-hydroxy-ethyl)-2-oxo-1,2-dihydro-indol-3-ylidene]-ethylamino}-benzamide]: the figures for the IC50 in assay [1] and in assay [2] were 0.036 µM and 1.01 µM, respectively.
